{"source": "patent US5624903A", "about": "“Phosphoinositol-glycan-peptide with insulin-like action” (Heochst Aktiengesellschaft, priority 1991, dated 1997)", "key": {"[1]": {"system": "plasma membrane vesicles from rat adipocytes", "experiment": "Intrinsic glucose transport activity in isolated plasma membrane vesicles", "assay_type": "biochemical", "details": "10 nM", "protocol": "(§1) Adipose tissue from the epididymis (Wistar rat, 160-180 g, no feed restriction) is digested with collagenase, and the resulting isolated adipocytes are washed several times by flotation.\n(§2) To inactivate the insulin receptor in rat adipocytes, the cells are treated with 10 to 40 μg/ml trypsin. After addition of protease inhibitors, the cells are washed twice by flotation, and incubation is continued at 37° C. for 15 min. These cells are then used for the test of stimulation of lipogenesis by the phosphoinositol-glycanpeptides.\nThe experimental results obtained in the following experiments with tissue or cells in which the insulin receptor has been inactivated are indicated in parentheses in each case. […]\nIsolated plasma membrane vesicles are incubated in the presence or absence of insulin/PGP at 25° C. for 30 min. The vesicles are subsequently incubated with 50 μM D-[3-^3 H]-glucose and L-[1-^14 C]glucose of the same specific radioactivity at 25° C. for 90 sec. […] Their radioactivity is determined by liquid scintillation measurement. The specific transport (D-[^3 H]glucose/-L-^14 C]glucose [dpm*10^-3 ]) is calculated as the difference between the [^3 H] radioactivity and [^14 C] radioactivity."}, "rat adipocytes [2]": {"system": "rat adipocytes", "experiment": "Protein synthesis in rat adipocytes ([3H]leucine incorporation)", "assay_type": "cell-based", "details": "10 nM", "protocol": "as §1, §2\n(§3) The experimental results obtained in the following experiments with tissue or cells in which the insulin receptor has been inactivated are indicated in parentheses in each case.\nThe stimulation of protein synthesis differs from the metabolic effects of insulin measured in the previous determinations in that it belongs to the long-term actions of insulin (as growth hormone). The assay includes the insulin signal cascade.\nRat adipocytes are incubated in primary culture in Dulbecco's modified essential medium (DMEM) deplete in leucine with 50 μM L-[^3 H]-leucine in the presence of insulin and PGP at 37° C. for 4 hours. […] The cell-associated radioactivity, determined by scintillation measurement, serves as a measure of the protein synthesis and the amino-acid transport through the plasma membrane ([^3 H]leucine [dpm*10^-4 ])."}, "rat adipocytes [3]": {"system": "rat adipocytes", "experiment": "Lipogenesis in rat adipocytes ([3H]glucose into lipids)", "assay_type": "cell-based", "details": "for Lipogenesis ([3H]lipid): 10 nM", "protocol": "as §1, §2, §3\nThis test determines the conversion, which can be stimulated by insulin, of glucose into toluene-soluble products (triglycerides, phospholipids, fatty acids), which requires glucose transport and triglyceride (glycerol 3-P synthesis, esterification)/phospholipid/fatty acid synthesis including the insulin signal transmission cascade.\nRat adipocytes are incubated in KRH buffer with D-[3-^3 H]glucose (0.2 mM or 1 mM final concentration) in the presence or absence of insulin and PGP at 37° C. for 90 min. The cells are disrupted by adding a toluene-soluble scintillation cocktail, and the lipids are separated from water-soluble products and the incubation medium. After phase separation, the radioactivity incorporated in lipids is determined by scintillation measurement directly without removing the aqueous phase ([^3 H]lipid [dpm*10^-3 ])."}, "glycogen synthase": {"system": "glycogen synthase", "experiment": "Glycogen synthase activity in rat diaphragm pieces", "assay_type": "cell-based", "details": "10 nM", "protocol": "(§4) Small pieces of tissue (5 mm diameter) were punched out of hemidiaphragms (Wistar rat, 60-70 g, no feed restriction) and washed several times.\n(§5) To inactivate the insulin receptor in rat diaphragm, the pieces of tissue are incubated in KRH buffer (0.1 mM glucose in the presence of 50 μg/ml tetradecanoylphorbol acetate) at 25° C., passing O2 through continuously, for 90 min. The pieces of tissue are subsequently washed twice with KRH buffer and used for the relevant tests.\nas §3\nThe test determines the conversion, which can be stimulated by insulin, of activated glucose (UDP-glucose) into glycogen (glycogen synthase activity) including a functional insulin signal transmission cascade. […]\nPieces of diaphragm are incubated with D-glucose (0.1 mM) in the presence or absence of insulin and PGP at 37° C. for 30 min. […] The glycogen synthase activity is calculated as the fractional ratio between the I form of the enzyme (independent of glucose 6-phosphate, dephosphorylated, corresponds to the amount of active enzyme in the homogenate) and the D form of the enzyme (dependent on glucose 6-phosphate, phosphorylated, corresponds to the total amount of activatable enzyme in the homogenate) ([^14 C]glycogen [dpm*10^-3 ])."}, "pieces of diaphragm": {"system": "pieces of diaphragm", "experiment": "Glycogenesis in rat diaphragm pieces ([14C]glucose into glycogen)", "assay_type": "cell-based", "details": "10 nM", "protocol": "as §4, §5, §3\nThis test determines the glycogen synthesis which can be stimulated by insulin in myocytes and which embraces glucose transport through the plasma membrane and the conversion of the glucose into glycogen including the functional insulin signal transmission cascade.\nPieces of diaphragm are incubated with 50 μM D-[U-^14 C] glucose in KRH buffer in the presence or absence of insulin and PGP at 37° C. for 15 min. […] To determine the glycogen formed, the filters are transferred into TCA (5%), washed with ethanol and acetone and dried, and their radio-activity is determined by scintillation measurement ([^14 C]glycogen [dpm*10^-3 ]). […]"}, "[4]": {"details": "insulin receptor inactivated (value in parentheses)"}}}
{"substance": "Insulin: insulin stands for human insulin", "values": [{"measurement": "Intrinsic glucose transport (specific transport D-[3H]glucose/L-[14C]glucose)", "setting": "[1]; [4]", "value": 2.3, "unit": "dpm*10^-3"}, {"measurement": "Intrinsic glucose transport (specific transport D-[3H]glucose/L-[14C]glucose)", "setting": "[1]; plasma membrane vesicles", "value": 2.5, "unit": "dpm*10^-3"}, {"measurement": "Protein synthesis ([3H]leucine)", "setting": "rat adipocytes [2]; [4]", "value": 4.0, "unit": "dpm*10^-4"}, {"measurement": "Protein synthesis ([3H]leucine)", "setting": "rat adipocytes [2]; rat adipocytes, 4 hours", "value": 10.1, "unit": "dpm*10^-4"}, {"measurement": "Lipogenesis ([3H]lipid)", "setting": "rat adipocytes [3]; rat adipocytes", "value": 11.2, "unit": "dpm*10^-3"}, {"measurement": "Lipogenesis ([3H]lipid)", "setting": "rat adipocytes [3]; trypsin-treated adipocytes, insulin receptor inactivated (value in parentheses)", "value": 1.9, "unit": "dpm*10^-3"}, {"measurement": "Lipogenesis which can be stimulated by insulin (in words)", "setting": "rat adipocytes [3]; control incubation, adipocytes treated with 10 to 40 μg/ml trypsin", "value": "only very little lipogenesis which can be stimulated by insulin"}, {"measurement": "Glycogen synthase", "setting": "glycogen synthase; [4]", "value": 6.0, "unit": "dpm*10^-3"}, {"measurement": "Glycogen synthase", "setting": "glycogen synthase; rat diaphragm pieces", "value": 10.1, "unit": "dpm*10^-3"}, {"measurement": "Glycogenesis ([14C]glycogen)", "setting": "pieces of diaphragm; rat diaphragm pieces", "value": 8.4, "unit": "dpm*10^-3"}, {"measurement": "Glycogenesis ([14C]glycogen)", "setting": "pieces of diaphragm; rat diaphragm, insulin receptor inactivated (value in parentheses)", "value": 4.1, "unit": "dpm*10^-3"}]}
